Assay results reported in ChEMBL document CHEMBL1146437, “Asterlingulatosides C and D, cytotoxic triterpenoid saponins from Aster lingulatus” (J Nat Prod, 1997).

Tested on: HL-60
Assay: Cytotoxicity against human HL60 cells assessed as inhibition of [3H]thymidine incorporation
Assay type: functional, cell-based

Compound | IC50 [µM]
C[C@@H]1O[C@@H](O[C@H]2[C@H](OC(=O)[C@]34CCC(C)(C)C[C@H]3C3=CC[C@@H]5[C@@]6(C)CC[C@H](O[C@@H]7O[C@H](CO)[C@@H](O)[C@H](O)[C@H]7O)C(C)(C)[C@@H]6CC[C@@]5(C)[C@]3(C)C[C@H]4O)OC[C@H](O)[C@@H]2O)[C@H](O)[C@H](O)[C@H]1O[C@@H]1OC[C@@H](O)[C@H](O)[C@H]1O [ASTERLINGULATOSIDE C] | 8.8
C[C@@H]1O[C@@H](O[C@H]2[C@H](OC(=O)[C@]34CCC(C)(C)C[C@H]3C3=CC[C@@H]5[C@@]6(C)CC[C@H](O[C@@H]7O[C@H](CO)[C@@H](O)[C@H](O)[C@H]7O)C(C)(C)[C@@H]6CC[C@@]5(C)[C@]3(C)C[C@H]4O)OC[C@H](O)[C@@H]2O)[C@H](O)[C@H](O)[C@H]1O[C@@H]1OC[C@@H](O)[C@H](O[C@@H]2OC[C@@H](O)[C@H](O)[C@H]2O)[C@H]1O [ASTERLINGULATOSIDE] | 6.1
C[C@@H]1O[C@@H](O[C@H]2[C@H](OC(=O)[C@]34CCC(C)(C)C[C@H]3C3=CC[C@@H]5[C@@]6(C)CC[C@H](O[C@@H]7O[C@H](CO)[C@@H](O)[C@H](O)[C@H]7O)C(C)(C)[C@@H]6CC[C@@]5(C)[C@]3(C)C[C@H]4O)OC[C@H](O)[C@@H]2O)[C@H](O)[C@H](O)[C@H]1O [ASTERLINGULATOSIDE B] | 70.4
CC1(C)CC[C@]2(C(=O)O[C@@H]3OC[C@H](O)[C@H](O)[C@H]3O)[C@H](O)C[C@]3(C)C(=CC[C@@H]4[C@@]5(C)CC[C@H](O[C@@H]6O[C@H](CO)[C@@H](O)[C@H](O)[C@H]6O)C(C)(C)[C@@H]5CC[C@]43C)[C@@H]2C1 [ASTERLINGULATOSIDE A] | 39
